Test results reported in patent US5124167A, “Anti-oxidant compositions containing fat” (Bar-Ilan University, priority 1990, dated 1992).

System: skin of adult mice (level of peroxides)
Experiment: Peroxide level (TBA test) in skin of adult mice after cream application
Assay type: in vivo
Details: 0.1% dissolved in Oil of Olay, similar experiments
Protocol: The plants that may be utilized as a source of the water soluble extract include the plant tissues of selected species such as the stems and green leaves selected from the group consisting of Spinacia, Trifolium, Medicago, Zea, Penicillaria, Algae, and Nicotiana. Other plants may be utilized if an aqueous extract of the green leaves provide an antioxidant effect when it is applied to skin. The antioxidant effect is determined by the thiobarbituric acid (TBA) test. This test is described in Food Res. V. 23, P 620 (1958). Generally the level of peroxide in the skin may be determined by assay of a sample of untreated skin which is peeled from a test animal. A preweighed sample of from 10 to 50 mg is homogenized in 0.2 M phosphate buffer pH 6.5 and centrifuged. The supernatant is collected and the peroxide level is determined using the TBA test. A sample of skin from the same animal which has been treated according to the invention is also peeled and the peroxide level is determined. A reduction in the peroxide level of about 35% when an antioxidant obtained from a plant is applied as 0.5% w/w dispersion in a petrolatum base is the criteria for determining if a given plant extract is useful according to the present invention.
Samples of creams and appropriate controls were applied to mice or rat skin for a fixed period. The application was done once a day. Experiments were terminated by killing the animals, peeling the skin and freezing it in liquid nitrogen. Samples of the frozen skin were homogenized in 0.2M phosphate buffer, pH 6.5. After centrifugation the supernatant was collected and analyzed for the peroxide value using the TBA (Thiobarbituric acid) test as described by Sinnhuber, et al. Food Res. V. 23, p 620 (1958).
In these experiments adult mice (2months old) were treated as described in Example 2. The grown mice were shaved before applying the creams to the skin.
In this experiment the antioxidant was dissolved in Oil of Olay. Mice were sacrificed after 21 days.

Cc1cc(C(C)(C)C)c(O)c(C(C)(C)C)c1 [BHT, butylated hydroxy toluene]
effect on the level of peroxides in the skin: no reduction of the peroxides was observed

COc1ccc(O)c(C(C)(C)C)c1 [BHA, butylated hydroxy anisole]
effect on the level of peroxides in the skin: no reduction of the peroxides was observed

Cc1c(C)c2c(c(C)c1O)CCC(C)(CCCC(C)CCCC(C)CCCC(C)C)O2 (stereo not drawn) [alpha tocopherol]
effect on the level of peroxides in the skin: no reduction of the peroxides was observed
